# From article PMC5119973 (Cancer Medicine, 2016)
# pIC50, pKd: −log10 of the molar value. Values joined by “and” are separate entries in the source; they are usually repeats but may differ in a detail not shown here. Equal values may be shown once.
# Legend:
# [1] = target: T1, JNK2 (Homo sapiens, UniProt P45984); experiment: KINOMEscan active-site competitive binding assay; settings: slash = duplicate values
# T1 construct: purchased DiscoveRx (KINOMEscan service)
# [2] = target: T2, SLK (Homo sapiens, UniProt Q9H2G2); experiment: KINOMEscan active-site competitive binding assay; settings: slash = two separate measurements
# T2 construct: purchased DiscoveRx
# T2 sequence (Q9H2G2 whole entry): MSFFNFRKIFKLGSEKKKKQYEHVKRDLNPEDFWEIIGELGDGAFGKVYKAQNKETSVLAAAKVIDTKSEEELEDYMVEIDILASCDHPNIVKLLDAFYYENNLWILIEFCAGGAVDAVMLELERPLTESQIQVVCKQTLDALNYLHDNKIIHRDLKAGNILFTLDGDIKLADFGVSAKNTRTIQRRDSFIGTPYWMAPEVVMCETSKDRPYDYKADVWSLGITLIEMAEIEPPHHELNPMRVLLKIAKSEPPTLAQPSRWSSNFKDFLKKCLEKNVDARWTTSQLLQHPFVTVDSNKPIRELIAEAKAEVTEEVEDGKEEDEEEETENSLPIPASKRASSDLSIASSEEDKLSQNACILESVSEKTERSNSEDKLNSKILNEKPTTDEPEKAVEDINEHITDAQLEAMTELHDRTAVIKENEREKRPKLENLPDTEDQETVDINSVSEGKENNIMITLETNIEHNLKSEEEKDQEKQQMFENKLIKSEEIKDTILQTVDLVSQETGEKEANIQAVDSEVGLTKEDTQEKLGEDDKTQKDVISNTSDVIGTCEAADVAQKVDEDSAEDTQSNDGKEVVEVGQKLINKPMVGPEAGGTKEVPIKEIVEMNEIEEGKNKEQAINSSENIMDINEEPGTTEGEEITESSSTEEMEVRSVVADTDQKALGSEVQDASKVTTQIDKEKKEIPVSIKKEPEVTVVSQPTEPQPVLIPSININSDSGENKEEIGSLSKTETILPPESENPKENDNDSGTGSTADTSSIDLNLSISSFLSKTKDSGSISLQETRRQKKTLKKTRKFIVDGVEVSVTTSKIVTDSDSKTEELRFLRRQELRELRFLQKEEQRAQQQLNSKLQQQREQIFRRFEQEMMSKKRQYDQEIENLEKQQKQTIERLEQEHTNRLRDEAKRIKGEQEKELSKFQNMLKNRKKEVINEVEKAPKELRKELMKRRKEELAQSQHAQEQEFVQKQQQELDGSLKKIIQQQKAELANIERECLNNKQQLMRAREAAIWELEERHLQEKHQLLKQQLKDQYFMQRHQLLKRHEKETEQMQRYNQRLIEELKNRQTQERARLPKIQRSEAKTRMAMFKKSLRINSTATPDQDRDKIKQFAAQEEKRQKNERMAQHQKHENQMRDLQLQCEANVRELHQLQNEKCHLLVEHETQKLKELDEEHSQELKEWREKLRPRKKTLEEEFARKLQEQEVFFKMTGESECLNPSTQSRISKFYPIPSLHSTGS
# [3] = target: T3, FGFR2 (Homo sapiens, UniProt P21802); experiment: FGFR phosphorylation assay in SNU‐16 cells (western blot); assay type: cell-based; settings: SNU‐16/FGFR2 cells, 0.1% bovine serum albumin, read-out: Mean ± SD IC50
# T3 construct: FGFR2, but not FGFR1, is overexpressed in the SNU‐16 cell line; endogenous in cells
# Protocol: (§1) VEGFR2 assays were performed in murine fibroblasts (NIH‐3T3) in the presence of 0.1 mg/mL human serum albumin. […] Substrate phosphorylation was determined from total cell lysates by enzyme‐linked immunosorbent assay. In addition, an FGFR phosphorylation assay was performed using a human gastric carcinoma cell line (SNU‐16), with pFGFR assessed by western blot. The PDGFRA phosphorylation assay was performed by DiscoverRx using the DiscoverRx PathHunter cell line, modified to express PDGFRA. […] The assay signal was generated using a detection reagent cocktail and measured by chemoluminescence 13. Both the PDGFRA and FGFR assays were performed in the presence of 0.1 mg/mL BSA.
# [4] = target: T4, TNNI3K (Homo sapiens, UniProt Q59H18); experiment: KINOMEscan active-site competitive binding assay; settings: slash = two separate measurements
# T4 construct: purchased DiscoveRx
# T4 sequence (Q59H18 1-835): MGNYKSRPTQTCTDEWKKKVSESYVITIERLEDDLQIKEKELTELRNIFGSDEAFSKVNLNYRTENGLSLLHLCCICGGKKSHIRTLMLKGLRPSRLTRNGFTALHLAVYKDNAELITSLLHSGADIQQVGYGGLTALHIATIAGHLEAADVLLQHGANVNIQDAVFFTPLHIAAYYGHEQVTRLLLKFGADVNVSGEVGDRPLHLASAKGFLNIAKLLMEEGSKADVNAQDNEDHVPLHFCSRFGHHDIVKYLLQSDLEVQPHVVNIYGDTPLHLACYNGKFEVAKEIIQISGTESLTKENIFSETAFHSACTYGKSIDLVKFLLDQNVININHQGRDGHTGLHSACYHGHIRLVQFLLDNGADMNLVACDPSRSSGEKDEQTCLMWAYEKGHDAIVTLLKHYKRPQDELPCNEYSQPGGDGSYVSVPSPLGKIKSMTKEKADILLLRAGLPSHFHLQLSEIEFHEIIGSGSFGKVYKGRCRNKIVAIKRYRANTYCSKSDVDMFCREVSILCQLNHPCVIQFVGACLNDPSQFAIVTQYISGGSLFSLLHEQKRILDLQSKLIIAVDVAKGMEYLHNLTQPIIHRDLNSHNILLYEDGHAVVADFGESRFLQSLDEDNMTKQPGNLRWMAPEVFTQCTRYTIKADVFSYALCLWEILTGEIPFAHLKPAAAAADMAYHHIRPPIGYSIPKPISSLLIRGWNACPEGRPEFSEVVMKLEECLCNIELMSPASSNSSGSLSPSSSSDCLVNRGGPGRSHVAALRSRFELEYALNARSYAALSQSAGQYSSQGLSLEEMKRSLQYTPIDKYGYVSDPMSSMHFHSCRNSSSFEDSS
# [5] = target: T5, KIT^L576P (Homo sapiens, UniProt P10721, L576P); experiment: KINOMEscan active-site competitive binding assay
# T5 construct: purchased DiscoveRx
# T5 sequence (P10721 26-976 L576P): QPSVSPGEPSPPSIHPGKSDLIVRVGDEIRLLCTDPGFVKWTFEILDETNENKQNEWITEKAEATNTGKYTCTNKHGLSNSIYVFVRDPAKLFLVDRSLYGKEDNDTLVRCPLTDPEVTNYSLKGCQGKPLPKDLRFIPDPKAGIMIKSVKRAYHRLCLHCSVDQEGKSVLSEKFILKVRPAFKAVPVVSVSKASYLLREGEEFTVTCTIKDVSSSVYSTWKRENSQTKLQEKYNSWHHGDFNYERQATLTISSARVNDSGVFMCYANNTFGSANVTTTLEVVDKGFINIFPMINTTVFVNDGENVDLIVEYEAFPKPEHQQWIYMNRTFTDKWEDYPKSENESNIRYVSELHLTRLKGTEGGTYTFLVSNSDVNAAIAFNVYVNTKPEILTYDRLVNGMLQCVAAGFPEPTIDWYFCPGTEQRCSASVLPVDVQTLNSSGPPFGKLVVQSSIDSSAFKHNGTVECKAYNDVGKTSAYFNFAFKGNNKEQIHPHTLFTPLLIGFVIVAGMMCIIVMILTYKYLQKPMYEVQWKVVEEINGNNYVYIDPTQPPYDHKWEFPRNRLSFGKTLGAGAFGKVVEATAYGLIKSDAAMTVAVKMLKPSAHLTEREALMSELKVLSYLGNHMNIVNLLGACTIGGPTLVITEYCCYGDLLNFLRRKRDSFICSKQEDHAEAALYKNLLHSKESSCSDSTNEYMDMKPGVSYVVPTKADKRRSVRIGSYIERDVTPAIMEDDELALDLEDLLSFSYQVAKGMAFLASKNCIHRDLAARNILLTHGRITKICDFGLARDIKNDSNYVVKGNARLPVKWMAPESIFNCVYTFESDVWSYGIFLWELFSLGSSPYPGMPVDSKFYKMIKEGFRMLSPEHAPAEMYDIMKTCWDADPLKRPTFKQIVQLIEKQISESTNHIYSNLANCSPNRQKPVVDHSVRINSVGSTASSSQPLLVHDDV
# [6] = target: BRAF^V600E (Homo sapiens, UniProt P15056, V600E); experiment: Cellular kinase phosphorylation assay, RAT‐1/BRAF^V600E; assay type: cell-based; design: host or cells: RAT-1 rat fibroblasts; settings: RAT‐1/BRAF^V600E cells; without serum; read-out: Mean ± SD IC50
# [7] = target: T6, DDR1 (Homo sapiens, UniProt Q08345); experiment: KINOMEscan active-site competitive binding assay; settings: slash = two separate measurements
# T6 construct: purchased DiscoveRx (KINOMEscan service)
# T6 sequence (Q08345 19-913): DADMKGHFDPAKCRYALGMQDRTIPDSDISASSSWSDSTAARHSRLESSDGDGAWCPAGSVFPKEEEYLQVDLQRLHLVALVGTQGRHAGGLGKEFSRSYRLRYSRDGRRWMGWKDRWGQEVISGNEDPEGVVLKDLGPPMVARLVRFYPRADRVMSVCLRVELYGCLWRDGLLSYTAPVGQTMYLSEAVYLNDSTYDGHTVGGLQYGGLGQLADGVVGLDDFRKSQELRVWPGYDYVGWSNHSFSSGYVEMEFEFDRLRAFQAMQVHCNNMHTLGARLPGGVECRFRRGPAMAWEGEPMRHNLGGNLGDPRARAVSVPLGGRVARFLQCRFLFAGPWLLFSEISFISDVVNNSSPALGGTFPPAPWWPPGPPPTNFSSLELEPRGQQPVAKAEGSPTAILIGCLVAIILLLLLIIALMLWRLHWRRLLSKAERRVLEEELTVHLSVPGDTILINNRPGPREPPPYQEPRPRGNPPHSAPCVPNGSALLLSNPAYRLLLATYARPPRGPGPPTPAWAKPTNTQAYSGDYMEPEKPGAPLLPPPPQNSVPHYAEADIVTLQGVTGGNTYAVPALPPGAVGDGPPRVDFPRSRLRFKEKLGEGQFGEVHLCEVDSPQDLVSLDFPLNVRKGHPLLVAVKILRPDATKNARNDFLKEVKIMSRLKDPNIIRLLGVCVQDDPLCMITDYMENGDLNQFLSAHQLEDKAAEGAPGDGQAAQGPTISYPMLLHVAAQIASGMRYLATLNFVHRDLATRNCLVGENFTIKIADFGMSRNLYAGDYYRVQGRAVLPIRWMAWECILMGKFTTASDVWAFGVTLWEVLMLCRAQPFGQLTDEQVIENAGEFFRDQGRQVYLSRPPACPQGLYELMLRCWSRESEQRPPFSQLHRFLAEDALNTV
# [8] = target: T7, FLT4 (Homo sapiens, UniProt P35916); experiment: KINOMEscan active-site competitive binding assay; settings: slash = two separate measurements
# T7 construct: purchased DiscoveRx (KINOMEscan service)
# [9] = target: T8, KIT^V559D,T670I (Homo sapiens, UniProt P10721, T670I/V559D); experiment: KINOMEscan active-site competitive binding assay
# T8 construct: purchased DiscoveRx (KINOMEscan service)
# T8 sequence (P10721 26-976 V559D/T670I): as the sequence (P10721 26-976 L576P) above, with V534D, P551L, T645I counted along it
# [10] = target: T9, KIT^V559D,V654A (Homo sapiens, UniProt P10721, V559D/V654A); experiment: KINOMEscan active-site competitive binding assay
# T9 construct: purchased DiscoveRx (KINOMEscan service)
# T9 sequence (P10721 26-976 V559D/V654A): as the sequence (P10721 26-976 L576P) above, with V534D, P551L, V629A counted along it
# [11] = target: T10, PDGFRα (Homo sapiens, UniProt P16234); experiment: PDGFRA phosphorylation assay, PathHunter cell line U2OS/PDGFRA; assay type: cell-based; settings: U2OS/PDGFRA cells; 0.1% bovine serum albumin; read-out: Mean ± SD IC50
# T10 construct: host or cells: PathHunter cell line (U2OS/PDGFRA)
# Protocol: as §1
# [12] = target: T11, ZAK (Homo sapiens, UniProt Q9NYL2); experiment: KINOMEscan active-site competitive binding assay; settings: slash = two separate measurements
# T11 construct: purchased DiscoveRx
# T11 sequence (Q9NYL2 whole entry): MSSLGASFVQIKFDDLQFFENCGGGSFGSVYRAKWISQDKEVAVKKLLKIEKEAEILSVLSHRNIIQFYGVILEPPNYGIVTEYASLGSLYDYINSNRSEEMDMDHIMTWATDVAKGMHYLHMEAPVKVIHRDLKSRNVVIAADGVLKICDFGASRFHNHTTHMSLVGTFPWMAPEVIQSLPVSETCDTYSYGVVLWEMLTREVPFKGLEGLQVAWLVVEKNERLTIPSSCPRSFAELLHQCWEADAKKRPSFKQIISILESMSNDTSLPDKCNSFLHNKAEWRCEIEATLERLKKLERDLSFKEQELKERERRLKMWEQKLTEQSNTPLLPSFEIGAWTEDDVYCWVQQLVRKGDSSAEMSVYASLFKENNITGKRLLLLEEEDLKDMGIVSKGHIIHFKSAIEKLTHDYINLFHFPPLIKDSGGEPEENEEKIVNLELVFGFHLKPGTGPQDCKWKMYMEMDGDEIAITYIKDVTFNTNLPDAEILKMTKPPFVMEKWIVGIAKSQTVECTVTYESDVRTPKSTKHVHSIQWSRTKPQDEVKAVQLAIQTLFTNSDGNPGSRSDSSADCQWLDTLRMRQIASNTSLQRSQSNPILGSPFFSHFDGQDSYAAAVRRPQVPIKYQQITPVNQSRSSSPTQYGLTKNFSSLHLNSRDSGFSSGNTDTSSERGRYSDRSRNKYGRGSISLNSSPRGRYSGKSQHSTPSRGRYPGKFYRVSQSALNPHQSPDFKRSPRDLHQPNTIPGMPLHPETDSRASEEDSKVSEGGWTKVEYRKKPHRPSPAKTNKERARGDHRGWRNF
# [13] = target: T12, MUSK (Homo sapiens, UniProt O15146); experiment: KINOMEscan active-site competitive binding assay; settings: slash = two separate measurements
# T12 construct: purchased DiscoveRx (KINOMEscan service)
# T12 sequence (O15146 24-869): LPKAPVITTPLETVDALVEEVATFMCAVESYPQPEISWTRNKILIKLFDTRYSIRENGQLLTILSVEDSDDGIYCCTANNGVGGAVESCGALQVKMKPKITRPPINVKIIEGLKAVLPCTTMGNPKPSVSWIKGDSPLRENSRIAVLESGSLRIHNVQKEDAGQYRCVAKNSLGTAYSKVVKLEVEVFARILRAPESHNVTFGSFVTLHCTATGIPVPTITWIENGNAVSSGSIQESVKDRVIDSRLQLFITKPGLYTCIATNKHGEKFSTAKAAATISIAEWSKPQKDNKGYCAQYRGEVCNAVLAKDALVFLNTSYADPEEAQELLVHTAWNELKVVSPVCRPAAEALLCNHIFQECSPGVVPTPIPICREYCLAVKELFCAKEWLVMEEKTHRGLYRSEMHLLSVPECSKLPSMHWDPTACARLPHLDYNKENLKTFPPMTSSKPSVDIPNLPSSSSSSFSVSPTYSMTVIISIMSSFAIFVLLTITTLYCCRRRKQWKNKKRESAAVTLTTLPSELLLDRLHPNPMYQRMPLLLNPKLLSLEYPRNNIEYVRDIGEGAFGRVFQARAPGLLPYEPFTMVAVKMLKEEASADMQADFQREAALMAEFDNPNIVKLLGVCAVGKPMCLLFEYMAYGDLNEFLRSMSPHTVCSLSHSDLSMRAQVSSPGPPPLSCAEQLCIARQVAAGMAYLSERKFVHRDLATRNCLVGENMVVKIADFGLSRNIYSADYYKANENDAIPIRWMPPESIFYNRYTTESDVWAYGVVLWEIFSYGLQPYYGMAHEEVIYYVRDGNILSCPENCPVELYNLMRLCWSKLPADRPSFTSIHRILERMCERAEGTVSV
# [14] = test system: HuLECs; experiment: VEGF‐C‐induced migration of HuLECs (scratch assay); assay type: cell-based, human; settings: 100 nmol/L, 40 h
# Protocol: A sterile pipette tip was then used to scratch the cell layers, and images were taken after continued incubation for 40 h.
# T1 sequence (P45984 whole entry): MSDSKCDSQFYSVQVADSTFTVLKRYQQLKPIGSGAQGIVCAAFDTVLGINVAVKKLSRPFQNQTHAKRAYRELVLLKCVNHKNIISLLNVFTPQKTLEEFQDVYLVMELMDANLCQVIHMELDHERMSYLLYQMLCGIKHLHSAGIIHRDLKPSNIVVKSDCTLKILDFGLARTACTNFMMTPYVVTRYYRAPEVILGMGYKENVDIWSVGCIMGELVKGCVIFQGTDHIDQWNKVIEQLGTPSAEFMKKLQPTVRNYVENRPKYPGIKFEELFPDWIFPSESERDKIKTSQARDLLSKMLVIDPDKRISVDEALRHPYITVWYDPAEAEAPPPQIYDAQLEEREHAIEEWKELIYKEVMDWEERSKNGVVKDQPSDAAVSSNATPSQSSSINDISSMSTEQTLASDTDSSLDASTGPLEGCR
Structure (SMILES),pKd [1],pKd [2],pIC50 [3],pKd [4],pKd [5],pIC50 [6],pKd [7],pKd [8],pKd [9],pKd [10],pIC50 [11],pKd [12],pKd [13],Inhibition of VEGF‐C‐induced migration [14]
CNC(=O)c1cc(Oc2ccc(NC(=O)Nc3ccc(Cl)c(C(F)(F)F)c3)c(F)c2)cc[n+]1[O-] [M‐2],7.17 and 7.36,7.19,~6.70,6.80,7.77,7.68,9.30,7.34,7.92,7.29,7.36,8.17,6.85,inhibited
NC(=O)c1cc(Oc2ccc(NC(=O)Nc3ccc(Cl)c(C(F)(F)F)c3)c(F)c2)cc[n+]1[O-] [M‐5],6.17,7.00,~6.00,7.11,8.04,7.57,9.40,7.40,7.96,7.38,7.21,8.15,6.85,inhibited
"CNC(=O)c1cc(Oc2ccc(NC(=O)Nc3ccc(Cl)c(C(F)(F)F)c3)c(F)c2)ccn1 [Regorafenib, reference compound]",5.85 and 5.72,6.92 and 7.01,,6.77 and 6.96,,,9.05 and 9.10,,,,,8.55 and 8.70,7.17,
